“Also recorded” adds a separate entry of the source. Where two headings read alike, the source gives them in different places.
Assays:
[1] = tested on: mitogenic signaling pathways and stress response pathways; experiment: Time-course Western blots; format: cell-based; conditions: DiFi, HT-29 and SW-480 cells; vinculin control (FIG. 1C-1E)
Method: After the indicated culture period and drug treatment, cells were washed with cold PBS, then lysed with RIPA buffer (25 mM Tris-HCl, pH 7.6, 150 mM NaCl, 1% NP-40, 1% sodium deoxycholate, 0.1% SDS) containing Complete Protease Inhibitor cocktail and phosphatase inhibitor cocktails II and III. Samples were then centrifuged for 10 min at 15,000 x g at 4° C. and supernatant was collected. Protein concentration of the samples was normalized after performing a Bicinchoninic Acid (BCA) assay. Protein samples (denatured with DTT followed by 5 min heating at 95° C.) were then loaded in a 4-12% polyacrylamide gel. Gels were run (SDS-PAGE) for approximately 45 min at 175 volts. Proteins were transferred from the gel to a polyvinylidene fluoride (PVDF) membrane at 330 mA for 90 min. After the transfer, membranes were incubated in blocking solution (5% bovine serum albumin (BSA) in PBS with 0.1% Tween-20 (PBS-T)). Subsequently, membranes were probed with primary antibody in blocking solution (1:1000) overnight at 4° C. Membranes were then washed 3 times for 10 min with PBS-T, followed by 1 h incubation at room temperature with the secondary antibody (HRP conjugated, 1:10,000) in blocking solution. […]
(§1) Then the cell viability was measured using resazurin.

[2] = tested on: colorectal cancer cell lines; experiment: cells
Method: Drug-response assays were performed in triplicate, using black-walled 384-well plates. Cells were plated with a 20% density (approximately) and incubated for approximately 24 hours to allow attachment to the plate. […] 10 µM phenylarsine oxide was used as positive control (0% cell viability) and DMSO was used as negative control (100% cell viability). 3-5 days later, culture medium was removed and resazurin was added to the plates. After 1-4 hours incubation (depending on the cell line), fluorescence (560Ex/590Em) was recorded using the EnVision (Perkin Elmer).
The effect of increasing doses of LB-100 to the Table 1 cell lines, both in short-term cell viability assays (FIG. 1A) and long-term cell proliferation assays (FIG. 1B), was analyzed. For the short-term study, cells were cultured with increasing concentrations of LB-100 for 5 days. Then the cell viability was measured using resazurin.
Adavosertib was used as the WEE1 kinase inhibitor to investigate the effect of the combination with LB-100 in the panel of CRC cells. […] Toxicity of the combination in long-term viability assays was assessed. The cells were cultured for at least ten days and the drugs were refreshed every other day. The toxicity of the single drugs in this experimental setup was assessed. […] Cells were then treated at the indicated conditions and confluence over time was measured by IncuCyte®, FIG. 3D).

[3] = tested on: pancreatic ductal adenocarcinoma (PDAC) cell lines; experiment: Short-term cell viability dose-response assay (resazurin); format: cell-based; conditions: 120 h, read-out: IC50s from dose-response curves
Excerpt: (§2) The efficacy of the LB-100/adavosertib combination in the CRC cell lines encouraged further evaluation in other tumor types lacking effective treatment options. Pancreatic ductal adenocarcinomas (PDACs) are refractory to conventional therapies and the 5-year survival rates remain one of the lowest among all cancers. Similarly, despite a much lower overall incidence, cholangiocarcinomas (CCAs) share with PDACs the frequent lack of response to conventional therapies and the dismal prognosis. A panel of four PDAC cell lines and a similar one with CCA cells were assembled to assess the efficacy of LB-100 and adavosertib in these cancer types. […] To investigate the effects of the combination in the PDAC and CCA cancer cell lines systematically, the same experimental workflow used for the CRC panel was employed. First, the long-term toxicity of LB-100 and adavosertib was addressed in the PDAC and CAA cell lines (FIG. 5D and FIG. 8C). […] As observed for DiFi and RKO, the doses of adavosertib used in the synergy assays are already toxic to AspC-1, EGI, and HuCC-T1 cells (FIG. 5C, FIG. 8A, and FIG. 8B).

[4] = tested on: cholangiocarcinoma (CCA) cell lines; experiment: as above; format: cell-based; conditions: 120 h, read-out: IC50s from dose-response curves
Excerpt: as §2

[5] = tested on: colorectal cancer cell lines; format: cell-based; conditions: for toxicity when combined with LB-100, long-term cell proliferation: SW-480 cells, multiple concentrations, 10-14 days (FIG. 2F)
Method: Finally, plates were scanned and stored.
as §1

[6] = tested on: HT-29 cells; experiment: Stress-focused drug screen of 164 compounds with or without LB-100; format: cell-based; conditions: 2.5 µM LB-100 (sub-lethal); cell viability after three days (FIG. 2C)
Excerpt: These compounds were investigated in 15 different concentrations using a literature-based concentration range in order to obtain dose-response curves for each of these drugs.

[7] = tested on: SW-480 cells; experiment: as above; format: cell-based; conditions: 2.5 µM LB-100 (sub-lethal); cell viability after three days; 15 concentrations (FIG. 2B)
Excerpt: (§3) To identify stress-targeted drugs that can be combined with LB-100 to kill cancer cells, a library of 164 compounds was built targeting the different stress responses associated with a malignant phenotype (i.e., proteotoxic stress, oxidative stress, DNA damage stress, mitotic stress, metabolic stress, and apoptosis evasion). These compounds were investigated in 15 different concentrations using a literature-based concentration range in order to obtain dose-response curves for each of these drugs.

[8] = tested on: RBE cholangiocarcinoma cells; experiment: as above; format: cell-based; conditions: stress-focused screen with LB-100 vs control (FIG. 5A)
Excerpt: as §3

SMILES: CN1CCN(C(=O)[C@@H]2[C@H](C(=O)O)[C@H]3CC[C@@H]2O3)CC1 (racemic) [LB-100]
- activation of mitogenic signaling and stress response pathways [1]: activates mitogenic signaling pathways and engages stress response pathways
- cytotoxicity, short-term cell viability [2]: moderate toxicity in the lower micro molar range
- IC50 [3]: ≥ 3200 nM
- IC50 [4]: ≥ 4700 nM
- cytotoxicity, long-term cell proliferation [5]: moderate toxicity in the lower micro molar range

SMILES: N#Cc1cnc(Nc2cc(NC[C@H]3CNCCO3)c(C(F)(F)F)cn2)cn1 [CCT-245737]
- toxicity in the presence of LB-100 vs control (normalized AUC) [6]: increased toxicity

SMILES: CN(C)CC#Cc1ccc(OCCCc2sc(N3CCc4cccc(C(=O)Nc5nc6ccccc6s5)c4C3)nc2C(=O)O)c(F)c1 [Compound A-1155463]
- toxicity in the presence of LB-100 vs control (normalized AUC) [7]: increased in the presence of LB-100
- toxicity when combined with LB-100, long-term cell proliferation [5]: increased toxicity

SMILES: N[C@@H]1CCCN(c2c(Br)cnc3[nH]cc(NC(=O)C4CC4)c23)C1 [GDC-0575]
- toxicity in the presence of LB-100 vs control (normalized AUC) [7]: among the bottom 5% normalized AUCs
- increased drug efficacy in the presence of LB-100 (normalized AUC) [8]: among the top 5% in increased drug efficacy
- toxicity in the presence of LB-100 vs control (normalized AUC) [6]: LB-100 increased the toxicity

SMILES: CCN(CC)CCOc1ccc(Nc2ncc3cc(-c4c(Cl)cccc4Cl)c(=O)n(C)c3n2)cc1 [PD0166285]
- toxicity in the presence of LB-100 vs control (normalized AUC) [7]: among the bottom 5% normalized AUCs

SMILES: Cn1cc(-c2cnn3c(N)c(Br)c([C@@H]4CCCNC4)nc23)cn1 [SCH-900776]
- increased drug efficacy in the presence of LB-100 (normalized AUC) [8]: among the top 5% in increased drug efficacy
- toxicity in the presence of LB-100 vs control (normalized AUC) [6]: increased toxicity

SMILES: C=CCn1c(=O)c2cnc(Nc3ccc(N4CCN(C)CC4)cc3)nc2n1-c1cccc(C(C)(C)O)n1 [adavosertib]
- toxicity in the presence of LB-100 vs control (normalized AUC) [7]: among the bottom 5% normalized AUCs
- increased drug efficacy in the presence of LB-100 (normalized AUC) [8]: among the top 5% in increased drug efficacy
- IC50 ([2]; 120 h, read-out: IC50s from dose-response curves): 180 to 1000 nM
- IC50 ([3]; range across four PDAC cell lines, 5 days, resazurin (FIG. 8A, 8B)): 300 to 1700 nM
- IC50 ([4]; range across CCA cell lines, 5 days, resazurin (FIG. 5C)): 100 to 370 nM
- tolerance to single drug, long-term viability ([5]; DLD1, HCT-116 and SW-480 cells (FIG. 3C)): largely tolerant to up to 500 nM
- toxicity when combined with LB-100, long-term cell proliferation [5]: increased toxicity
- toxicity in the presence of LB-100 vs control (normalized AUC) [6]: LB-100 increased the toxicity

SMILES: CNCc1ccc(-c2cc(-c3nc(-c4ccc(S(=O)(=O)C(C)C)cc4)cnc3N)on2)cc1 [berzosertib]
- increased drug efficacy in the presence of LB-100 (normalized AUC) [8]: among the top 5% in increased drug efficacy

SMILES: CC1(C)CCC(c2ccc(Cl)cc2)=C(CN2CCN(c3ccc(C(=O)NS(=O)(=O)c4ccc(N[C@H](CCN5CCOCC5)CSc5ccccc5)c(S(=O)(=O)C(F)(F)F)c4)cc3)CC2)C1 [navitoclax]
- toxicity in the presence of LB-100 vs control (normalized AUC) [7]: increased in the presence of LB-100

SMILES: COc1cccc(OCCCN)c1-c1cc(Nc2cnc(C#N)cn2)n[nH]1 [prexasertib]
- toxicity in the presence of LB-100 vs control (normalized AUC) [7]: among the bottom 5% normalized AUCs; also recorded: increased toxicity
- increased drug efficacy in the presence of LB-100 (normalized AUC) [8]: among the top 5% in increased drug efficacy
- toxicity when combined with LB-100, long-term cell proliferation [5]: increased toxicity

SMILES: Cc1cnc(NC(=O)Nc2cc(Br)c(C)cc2OC[C@@H]2CNCCO2)cn1 [rabusertib]
- toxicity in the presence of LB-100 vs control (normalized AUC) [7]: among the bottom 5% normalized AUCs; also recorded: increased toxicity
- increased drug efficacy in the presence of LB-100 (normalized AUC) [8]: among the top 5% in increased drug efficacy
